From patent US20040110287A1, “Multi-step method for the differentiation of insulin positive, glucose responsive cells” (ES Cell International Pte Ltd., priority 2002, published 2004)

Tested on: islet-like structures
Test: Glucose-stimulated insulin release and insulin content of islet-like structures
Assay type: cell-based
Conditions: 3 mM or 20 mM glucose, factor added to culture
Procedure: After the complete differentiation protocol described in detail in Example 2, the islet-like structures were cultured in the presence of either 3 mM glucose or 20 mM glucose to assay for glucose-stimulated insulin release. Insulin release and total insulin content were measured using standard methods. Additionally, factors were added to the culture of islet-like structures.

Compound	responsiveness of islet-like structures to high glucose (insulin release)
CC(C)(COP(=O)(O)OP(=O)(O)OC[C@H]1O[C@@H](n2cnc3c(N)ncnc32)[C@H](O)[C@@H]1OP(=O)(O)O)[C@@H](O)C(=O)NCCC(=O)NCCSC(=O)CC(=O)O [malonyl CoA, reference compound]	increased the responsiveness
NC(=O)c1cccnc1 [nicotinamide, reference compound]	increased the responsiveness
Desert hedgehog	increased the responsiveness
Indian hedgehog	increased the responsiveness
Sonic hedgehog	increased the responsiveness
exendin-4 [reference compound]	increased the responsiveness
leptin	increased the responsiveness
